Laboratory results taken from patent publication US9045563B2, “CXC chemokine receptor 4 (CXCR4) antagonistic polypeptide” (priority 2007, dated 2015).
Ends that are not written are not given here.

Key:
X4 tropic HIV-1 NL4-3 [1] = details: TZM-bl cells; for IC50: read-out: IC50 ± SEM, X4 tropic HIV-1 NL4-3, two days post infection, synthetic peptides
Procedure: HIV inhibition test were performed by seeding 4000 P4-R5 MAGI cells (P. Charneau et al., J. Mol. Biol. 241: 651, 1994) in 100 μl of DMEM (10% FCS, 100 U/ml penicillin G, and 100 μg/ml streptomycin sulfate). P4-R5 cells are stably transfected with an LTR-lacZ cassette and upon successful infection by HIV-1 will express—galactosidase in a Tat-dependent manner, which can be detected in a chemiluminescence test. On the following day, aliquots of the fractions were added. Therefor the lyophilized fractions were resuspended in 80 μl of DMEM, and 25 μl each thereof was pipetted to P4-R5 cells, incubated at 37° C. for 1 hour and subsequently infected with HIV-1 NL4—3 (1 ng of p24 antigen). Virus stocks were obtained by transient infection of 293T cells with proviral DNA by the calcium phosphate method (CalPhos™ Mammalian Transfection Kit, Clontech). Virus stocks were harvested 48 hours post transfection, filtrated and used for infection. Three days post infection, β-galactosidase activity in infected P4-R5 cells was detected using GalScreen assay (TROPIX) as recommended by the manufacturer. Briefly, supernatant was removed, 40 μl of a 1:1 dilution of PBS/GalScreen+substrate was added, followed by incubation at room temperature for 30 min. Then 30 μl of the lysates were transferred into 96 well lumiplates. Subsequently, the lumines-cence was detected as relative light units per second in a luminometer (Berthold, ORION). From all measurements, the mean β-galactosidase background activity of non-infected control cells was subtracted. % infection values for each infection were calculated relative to no peptide containing controls (100%). The enzyme activities in measurements without ALB408-423 were set at 100%, and all other values were based thereon. The final purification (7th step) was examined under exactly the same conditions in TZM-bl cells (X. Wei et al., Antimicrob. Agents Chemother. 46: 1896, 2002).
1.6 mg of fraction 31 from the 7th step in Example 1 was dissolved in 160 μl of DMEM. Subsequently, 10 μl of serial dilutions of fraction 31 containing ALB408-423 were added to 60 μl of TZM-bl cells (60 μl) and infected with 1 ng of p24 antigen HIV-1 NL4—3 in a total volume of 100 μl. Three days later, infection rates were determined in a GalScreen assay (see Example 1).
(§1) 5000 TZM-bl cells were seeded in 100 μl of DMEM (10% FCS, 100 U/ml of penicillin G and 100 μg/ml of streptomycin sulfate). ALB408-423 was dissolved in PBS (10 mg/ml). One day later, 20 μl serial dilutions of ALB408-423 in PBS were added to cells and cells were subsequently infected with 0.5 ng of p24 antigen HIV-1 in a total volume of 200 μl. HIV-1 molecular clones differing in coreceptor tropism were used and generated as described (Papkalla et al., J. Virol. 76: 8455-9, 2002).
Table 1. Antiviral activity of various ALB fragments against X4 tropic HIV-1 NL4-3 infection. TZM-bl cells containing serial dilutions of synthetic peptides were infected with HIV-1 NL4-3 and infection rates were determined and calculated as described in example 1 and 2 at two days post infection. IC50 values were determined using the GraphPad Prism software package.
Various ALB408-423 derivatives containing N or C terminal deletions or amino acid substitutions (Table 1) were chemically synthesized and lyophilized peptides were dissolved in PBS. The antiviral activity was analyzed in TZM-bl cells using X4 tropic HIV-1 NL4-3 as described (example 4).

[2] = test system: X4 tropic HIV-1 variants NL4-3, P51-Sc, P59-S/27 and P34-S; details: TZM-bl cells, 100 μM peptide
Procedure: as §1
(§2) FIG. 3: Chemically synthesized ALB408-423 specifically blocks X4 tropic HIV-1 infection. TZM-bl cells containing indicated dilutions of peptide were infected with HIV-1 variants differing in their coreceptor tropism. 3 days later Gal Screen assay was used to measure infection rates. […] B) Infection rates in the presence of 500 μg/ml ALB408-423 showing that the peptide specifically blocks X4 but not R5 tropic HIV-1 infection. Data shown are mean values±standard deviation derived from triplicate infections relative to PBS containing cells (100% infection).
(§3) After 3 days, infection was detected using GalScreen assay (TROPIX) (example 1). […] In contrast, CCR5 tropic HIV-1 variants were not inhibited even in the presence of very high doses of ALB408-423 (500 μg/ml) (FIG. 3B). Due to the specific inhibition of the infection caused by X4-tropic HIV-1 variants, it is to be assumed that ALB408-423 interacts with the chemokine receptor CXCR4.
(§4) Virus stocks were first titrated on TZM-bl cells. Then TZM-bl cells containing 100 μM of peptides were infected with infectivity normalized amounts of X4, dualtropic (X4/R5) or R5 tropic HIV-1.
(§5) FIG. 10. ALB408-423 and truncated ALB derivatives specifically block X4 tropic HIV-1 infection. TZM-bl cells either containing PBS or 100 μM of indicated peptides were infected with normalized infectivities of X4, dualtropic or R5 tropic HIV-1 clones. Infection rates were measured 2 days post infection using the GalScreen assay. Shown are mean values (% of PBS treated control)±standard deviations derived from triplicate measurements.

[3] = test system: dual tropic (CXCR4 and CCR5 using) variant 92ht593.1; assay: Infection of TZM-bl cells by dual tropic HIV-1, GalScreen; assay type: cell-based; details: 100 μM peptide
Procedure: as §1, §2, §3, §4, §5

[4] = test system: CCR5 tropic HIV-1 variants; assay: Infection of TZM-bl cells by R5 tropic HIV-1 variants, GalScreen; assay type: cell-based; details: 100 μM peptide
Procedure: as §1, §2, §3, §4, §5

X4 tropic HIV-1 NL4-3 [5] = assay: X4 tropic HIV-1 infection and replication in PBMC, p24 antigen ELISA; assay type: cell-based; details: 100 μM peptide, day 6 post infection
Procedure: To analyze the effect of ALB408-423 and derivatives thereof in relevant primary cells, peripheral blood mononuclear cells were isolated from Buffy coat derived from the DRK-Blutspendedienst Baden-Württemberg-Hessen using Ficoll density centrifugation. 1×10^6 PBMC per ml were stimulated with 1 μg/ml phytohemagglutinine (PHA, Oxoid, #3085280) and 10 ng/ml Interleukin 2 (IL-2, Strathmann, #9511192) for three days. Thereafter cells were pelleted and resuspended in IL-2 containing medium. 1.5×10^5 PBMC (250 μl) were seeded in 96 well dishes, peptides were added and cells were infected with […] p24 antigen of X4 tropic HIV-1 NL4-3. Supernatants containing progeny virus were taken at day 1, 3 and 6 post infection. Virus production was measured by p24 antigen ELISA (SAIC-Frederick, Inc [AIDS & Cancer virus program]). […] In the presence of 20 μM peptides virus replication was severely impaired.
FIG. 11. ALB408-423 and derivatives inhibit X4 tropic HIV-1 infection of peripheral blood mononuclear cells (PBMC). Cells were incubated with indicated concentrations of ALB408-423 or truncated variants and infected with X4 tropic HIV-1. Supernatants obtained after 6 days were analyzed by p24 ELISA. Shown are mean p24 antigen values (ng/ml) derived from triplicate infections±standard deviation.

CXCR4 = CXCR4 (Homo sapiens, UniProt P61073); set-up: expressed in transfected cells; details: read-out: dissociation constant of fluorescent CXCL12 for the CXCR4 receptor; cited from earlier work
Sequence of CXCR4 (P61073 whole entry): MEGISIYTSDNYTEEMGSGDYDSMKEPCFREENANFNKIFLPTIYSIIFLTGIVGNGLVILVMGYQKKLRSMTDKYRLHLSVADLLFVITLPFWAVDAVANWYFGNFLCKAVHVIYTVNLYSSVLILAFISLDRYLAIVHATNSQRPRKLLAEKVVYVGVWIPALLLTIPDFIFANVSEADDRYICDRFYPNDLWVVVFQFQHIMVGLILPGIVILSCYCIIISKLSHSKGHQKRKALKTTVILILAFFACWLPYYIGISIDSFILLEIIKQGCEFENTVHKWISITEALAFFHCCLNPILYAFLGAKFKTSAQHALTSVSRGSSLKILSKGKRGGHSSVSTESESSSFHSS

Row | Substance | antiviral activity against X4 tropic HIV-1 NL4-3 (words, SAR study) (X4 tropic HIV-1 NL4-3 [1]) | IC50 (X4 tropic HIV-1 NL4-3 [1]) | other results
1 | ALB408-416: SEQ ID No 15; C terminal truncation of ALB408-423, sequence not printed in Table 1 (LVRYTKKVP; listed as Homo sapiens) | remained active | – | –
2 | AVRYTKKVPQVS [ALB408A-419, AVRYTKKVPQVS] | inactive peptides | – | –
3 | FVRYTKKVPQVS [ALB408F-419, FVRYTKKVPQVS] | inactive peptides | – | –
4 | GVRYTKKVPQVS [ALB408G-419, GVRYTKKVPQVS] | inactive peptides | – | –
5 | IVRYTKKVPQVS [ALB408I-419] | – | 1.55 ± 1.2 µM | block of infection by X4 tropic HIV-1 clones (NL4-3, P51-Sc, P34-s) [2]: almost completely; inhibition of dualtropic HIV-1 clone 92ht593.1 [3]: only moderately; effect on R5 tropic HIV-1 infection [4]: no effect; p24 antigen in supernatants (X4 tropic HIV-1 NL4-3 [5]): No p24 antigen could be detected
6 | KKVPQVSTPTL [ALB413-423, KKVPQVSTPTL] | severely impaired or abrogated antiviral activity | > 100 µM | –
7 | KVPQVSTPTL [ALB414-423, KVPQVSTPTL] | severely impaired or abrogated antiviral activity | – | –
8 | LARYTKKV [ALB-V409A, LARYTKKV] | – | 32.9 µM | –
9 | LLVRYTKKVPQVS [ALB407-419, LLVRYTKKVPQVS] | reduced its antiviral activity | – | –
10 | LVAYTKKV [ALB-R410A, LVAYTKKV] | – | > 1000 µM | –
11 | LVRATKKV [ALB-Y411A, LVRATKKV] | – | 91 µM | –
12 | LVRYAKKV [ALB-T412A, LVRYAKKV] | – | 11.2 ± 0.1 µM | block of infection by X4 tropic HIV-1 clones (NL4-3, P51-Sc, P34-s) [2]: almost completely; inhibition of dualtropic HIV-1 clone 92ht593.1 [3]: only moderately; effect on R5 tropic HIV-1 infection [4]: no effect
13 | LVRYTAKV [ALB-K413A, LVRYTAKV] | – | 56 µM | –
14 | LVRYTKAV [ALB-K414A, LVRYTKAV] | – | 31 µM | –
15 | LVRYTKK [ALB408-414, LVRYTKK] | remained active | – | –
16 | LVRYTKKA [ALB-V415A, LVRYTKKA] | – | 33 µM | –
17 | LVRYTKKV [ALB408-415, LVRYTKKV] | remained active | 17.4 ± 6.5 µM | –
18 | LVRYTKKVPQ [ALB408-417, LVRYTKKVPQ] | remained active | 19.9 ± 4.1 µM | –
19 | LVRYTKKVPQV [ALB408-418, LVRYTKKVPQV] | remained active | – | –
20 | LVRYTKKVPQVS [ALB408-419, LVRYTKKVPQVS] | remained active | 4.4 ± 1 µM | block of infection by X4 tropic HIV-1 clones (NL4-3, P51-Sc, P34-s) [2]: almost completely; inhibition of dualtropic HIV-1 clone 92ht593.1 [3]: only moderately; effect on R5 tropic HIV-1 infection [4]: no effect; p24 antigen in supernatants (X4 tropic HIV-1 NL4-3 [5]): only marginal p24 levels
21 | LVRYTKKVPQVST [ALB408-420, LVRYTKKVPQVST] | remained active | – | –
22 | LVRYTKKVPQVSTP [ALB408-421, LVRYTKKVPQVSTP] | remained active | – | –
23 | LVRYTKKVPQVSTPT [ALB408-422, LVRYTKKVPQVSTPT] | remained active | – | –
24 | RYTKKVPQVSTPTL [ALB410-423, RYTKKVPQVSTPTL] | severely impaired or abrogated antiviral activity | > 100 µM | –
25 | TKKVPQVSTPTL [ALB412-423, TKKVPQVSTPTL] | severely impaired or abrogated antiviral activity | > 100 µM | –
26 | VPQVSTPTL [ALB415-423, VPQVSTPTL] | severely impaired or abrogated antiviral activity | > 100 µM | –
27 | YTKKVPQVSTPTL [ALB411-423, YTKKVPQVSTPTL] | severely impaired or abrogated antiviral activity | – | –
28 | fluorescent CXCL12: synthesized human chemokine CXCL12 labeled with Texas Red, fluorescent CXCR4 ligand | – | – | Kd (CXCR4): 0.055 ± 0.015 µM
